Structures can show the parent of a compound that is named as a salt. Where two headings read alike, the source gives them in different places.
Tests used:
HCV = test: Anti-HCV effect in vitro, intracellular HCV RNA by real-time RT-PCR in infected Huh7.5 cells; format: cell-based, hepatitis C virus; settings: for EC50: read-out: EC50 (concentration required to inhibit HCV growth by 50%); for SI (ratio of CC50 to EC50): Huh7.5 cells
Description: (§1) All the target compounds were evaluated for their anti-HCV activities (EC50) and cytotoxicities (CC50) in human Huh7.5 cells using specific real-time RT-PCR assay, as described earlier. As an important indicator, the selectivity index (SI) was calculated as a ratio of CC50 to EC50. Anti-HCV ability of a given compound was estimated by combining its EC50 with SI values.
(§2) Human liver cell line Huh7.5 cells (kindly provided by Vertex Pharmaceuticals, Inc., Boston, MA) were cultured in Dulbecco’s modified eagle medium (DMEM) supplemented with 10% inactivated fetal bovine serum and 1% penicillin–streptomycin (invitrogen). Cells were digested with 0.05% trypsin-ethylene diamine tetraacetic acid (EDTA) and split twice a week.
Huh7.5 cells were seeded into 96-well or 6-well plates (Costar) at a density of 3 × 10^4 cells cm^−2. After 24 h incubation, the cells were infected with HCV viral stock (45 IU cell^−1) and simultaneously treated with the test compounds at various concentrations or solvent as control. The culture medium was removed after 72 h inoculation, the intracellular total RNA (in 96-well plates) was extracted with RNeasy Mini Kit (Qiagen), and total intracellular proteins (in 6-well plates) were extracted with Cyto-Buster Protein Extraction Reagent added with 1 mM protease inhibitor cocktail. The intracellular HCV RNA was quantified with a real time one-step reverse-transcription polymerase chain reaction (RT-PCR).

Huh7.5 cells = test: Cytotoxicity assay (MTT) in Huh7.5 cells; format: cell-based, human
Description: as §1, §2
(§3) Huh7.5 cells were seeded into 96-well plates (Costar) at a density of 3 × 10^4 cells cm^−2. After 24 h incubation, fresh culture medium containing test compounds at various concentrations were added. 72 h later, cytotoxicity was evaluated with 3-(4,5-dimethylthiazol-2-yl)-2,5-diphenyltetrazolium bromide (MTT).

[1] = Cytotoxicity assay (MTT) in Huh7.5 cells; format: cell-based, human; settings: human
Description: as §1, §2, §3

[2] = HCV-infected Huh7.5 cells, 72 h, real-time RT-PCR
[3] = Huh7.5 cells, 72 h, MTT, read-out: CC50 (cytotoxic concentration required to inhibit Huh7.5 cell growth by 50%)
[4] = Hepatitis C virus, Huh7.5, 72 h

SMILES	EC50 (HCV; [2]) [µM]	SI (ratio of CC50 to EC50) (HCV)	CC50 (Huh7.5 cells) [µM]	CC50 (Huh7.5 cells; [3]) [µM]	EC50 (HCV; [4]) [µM]	CC50 at 72 h [1] [µM]	melting point [°C]	CC50 at 72 h [1, 3] [µM]
OCCCCC1C2CCCN3CCCC(CN1Cc1cccnc1)C23 (stereo not drawn) [7f, 12N-(Pyridin-3-ylmethyl)matrinol]	4.39 ± 3.01	> 114	> 500					
C=Cc1ccc(CN2C[C@@H]3CCCN4CCC[C@@H]([C@H]34)[C@H]2CCCC(=O)OC)cc1 [6c, Methyl 12N-(4-vinylbenzyl)matrinate]	1.61 ± 0.76	50.4		81.2 ± 12.9				
Cl.Cl.OCCCC[C@@H]1[C@H]2CCCN3CCC[C@@H](CN1Cc1ccncc1)[C@@H]23 [7e, 12N-(Pyridin-4-ylmethyl)matrinol dihydrochloride]	9.03 ± 5.58	> 55.4	> 500					
CCC[C@H](NC(=O)[C@@H]1[C@H]2CCC[C@H]2CN1C(=O)[C@@H](NC(=O)[C@@H](NC(=O)c1cnccn1)C1CCCCC1)C(C)(C)C)C(=O)C(=O)NC1CC1 [Tela, telaprevir, reference compound]		1950			0.02 ± 0.02	47.6 ± 0.61		
COC(=O)CCCC1C2CCCN3CCCC(CN1Cc1ccc([N+](=O)[O-])cc1)C23.Cl.Cl (stereo not drawn) [6e, Methyl 12N-(4-nitrobenzyl)matrinate dihydrochloride]	14.2 ± 3.13	16.5	235 ± 48.2					
C=Cc1ccc(CN2C[C@@H]3CCCN4CCC[C@@H]([C@H]34)[C@H]2CCCCO)cc1.Cl.Cl [7c, 12N-(4-Vinylbenzyl)matrinol dihydrochloride]	3.16 ± 0.51	45.3	143 ± 32.3					
O=C(CN1C[C@@H]2CCCN3CCC[C@@H]([C@H]23)[C@H]1CCCCO)Nc1ccccc1 [7 h, 12N-(2-Oxo-2-(phenylamino)ethyl)matrinol]	46.7 ± 41	> 10.7	> 500					
COC(=O)CCC[C@@H]1[C@H]2CCCN3CCC[C@@H](CN1Cc1ccc(F)cc1)[C@@H]23 [compound 2]	2.09 ± 1.65	131		274 ± 8.35				
Cl.Cl.OCCCCC1C2CCCN3CCCC(CN1Cc1ccc(Cl)cn1)C23 (stereo not drawn) [7 g, 12N-(5-Chloropyridin-2-ylmethyl)matrinol dihydrochloride]	10.9 ± 5.59	> 45.9	> 500					
O=[N+]([O-])c1cccc(CN2C[C@@H]3CCCN4CCC[C@@H]([C@H]34)[C@H]2/C=C\CCO)c1 (as salt: hydrochloride) [compound 20, (Z)-12N-(3-nitrobenzyl)-Δ^βγ-matrinic crotonol dihydrochloride]							143 to 145	
COC(=O)CCC[C@@H]1[C@H]2CCCN3CCC[C@@H](CN1Cc1ccc(F)cc1F)[C@@H]23 [6d, Methyl 12N-(2,4-difluorobenzyl)matrinate]	1.69 ± 1.47	154		261 ± 28.7				
CCCCCCCN1C[C@@H]2CCCN3CCC[C@@H]([C@H]23)[C@H]1CCCCO [3c]	1.01 ± 0.55	32.9	33.3 ± 6.49					
CCC(O)(CC)CCC[C@@H]1[C@H]2CCCN3CCC[C@@H](CN1Cc1ccc(C)cc1)[C@@H]23.Cl.Cl [10c, 1′,1′-Diethyl-12N-(4-methylbenzyl)matrinol dihydrochloride]	< 0.23	> 53.5	12.3 ± 4.23					
Cc1ccc(CN2CC3CCCN4CCCC(C2CCCC(C)(C)O)C34)cc1.Cl.Cl (stereo not drawn) [10b, 1′,1′-Dimethyl-12N-(4-methylbenzyl)matrinol dihydrochloride]	0.82 ± 0.26	67.9	55.7 ± 7.5					
Cl.Cl.OCC/C=C\C1C2CCCN3CCCC(CN1Cc1ccc(F)cc1)C23 (stereo not drawn) [14b, (Z)-12N-4-(Fluorobenzyl)-Δ^βγ-matrinic crotonol dihydrochloride]	13.6 ± 2.63	11.5	156 ± 65.8					
OCCCCC1C2CCCN3CCCC(CN1Cc1ccc(F)cc1F)C23 (stereo not drawn) [7d, 12N-(2,4-Difluorobenzyl)matrinol dihydrochloride]	< 2.06			266 ± 9.47				

SMILES	EC50 (HCV; [2]) [µM]	SI (ratio of CC50 to EC50) (HCV)	CC50 (Huh7.5 cells) [µM]	CC50 (Huh7.5 cells; [3]) [µM]	EC50 (HCV; [4]) [µM]	CC50 at 72 h [1] [µM]	melting point [°C]	CC50 at 72 h [1, 3] [µM]
COc1ccc(CN2C[C@@H]3CCCN4CCC[C@@H]([C@H]34)[C@H]2CCCC(C)(C)O)cc1.Cl.Cl [10a, 1′,1′-Dimethyl-12N-(4-methoxybenzyl)matrinol dihydrochloride]	11.7 ± 0.06	12.0	> 140					
COC(=O)C/C=C\[C@@H]1[C@H]2CCCN3CCC[C@@H](CN1Cc1cccc([N+](=O)[O-])c1)[C@@H]23.Cl.Cl [13c, (Z)-Methyl 12N-(3-nitrobenzyl)-Δ^βγ-matrinic crotonate dihydrochloride]	40.4 ± 3.64	10.0		402 ± 83.6				
COC(=O)C/C=C\[C@@H]1[C@H]2CCCN3CCC[C@@H](CN1Cc1ccc(F)cc1)[C@@H]23.Cl.Cl [13b, (Z)-Methyl 12N-(4-fluorobenzyl)-Δ^βγ-matrinic crotonate dihydrochloride]	18.1 ± 6.49	14.4	260 ± 84.8					
CCCN1C[C@@H]2CCCN3CCC[C@@H]([C@H]23)[C@H]1CCCCO [3b]	16.4 ± 10.9	> 30.5	> 500					
COC(=O)CCC[C@@H]1[C@H]2CCCN3CCC[C@@H](CN1Cc1ccc(C)cc1)[C@@H]23 [6b, Methyl 12N-(4-methylbenzyl)matrinate]	1.73 ± 1.36	76.8		133 ± 7.53				
OCCCC[C@@H]1[C@H]2CCCN3CCC[C@@H](CN1Cc1ccc(F)cc1)[C@@H]23 [3a]	2.99 ± 1.51	95.3	285 ± 7.45					
COC(=O)C/C=C\C1C2CCCN3CCCC(CN1Cc1ccc(OC)cc1)C23 (stereo not drawn) [13a, (Z)-Methyl 12N-(4-methoxybenzyl)-Δ^βγ-matrinic crotonate]	16.7 ± 4.71	19.5	326 ± 21					
O=[N+]([O-])c1cccc(CN2C[C@@H]3CCCN4CCC[C@@H]([C@H]34)[C@H]2/C=C\CCO)c1 [compound 20, (Z)-12N-(3-nitrobenzyl)-Δ^βγ-matrinic crotonol dihydrochloride]		17.0			18.4 ± 1.64			312 ± 31.1
COC(=O)CCC[C@@H]1[C@H]2CCCN3CCC[C@@H](CN1Cc1ccncc1)[C@@H]23 [6f, Methyl 12N-(pyridin-4-ylmethyl)matrinate]	4.66 ± 0.35	> 107	> 500					
CC(C)(O)CCCC1C2CCCN3CCCC(CN1Cc1ccc(F)cc1F)C23.Cl.Cl (stereo not drawn) [10d, 1′,1′-Dimethyl-12N-(2,4-difluorobenzyl)matrinol dihydrochloride]	6.55 ± 2.69	23.8	156 ± 37.9					
COC(=O)CCC[C@@H]1[C@H]2CCCN3CCC[C@@H](CN1Cc1ccc(OC)cc1)[C@@H]23.Cl.Cl [6a, Methyl 12N-(4-methoxybenzyl)matrinate dihydrochloride]	7.01 ± 1.51	59.1	414 ± 7.34					
CC(C)(O)CCC[C@@H]1[C@H]2CCCN3CCC[C@@H](CN1Cc1ccncc1)[C@@H]23 [10e, 1′,1′-Dimethyl-12N-(4-pyridylmethyl)matrinol]	80.4		> 500					
COc1ccc(CN2CC3CCCN4CCCC(C2/C=C\CCO)C34)cc1.Cl.Cl (stereo not drawn) [14a, (Z)-12N-(4-Methoxybenzyl)-Δ^βγ-matrinic crotonol dihydrochloride]	8.8 ± 2.15	24.3	214 ± 95					
CCCCCCCCN1C[C@@H]2CCCN3CCC[C@@H]([C@H]23)[C@H]1CCCCO [3d]	0.8 ± 0.26	22.3	17.8 ± 2.44					
Cl.Cl.O=C(CN1CC2CCCN3CCCC(C1CCCCO)C23)Nc1ccc(C(F)(F)F)cc1 (stereo not drawn) [7i, 12N-(2-Oxo-2-((4-(trifluoromethyl)phenyl)amino)ethyl)matrinol dihydrochloride]	4.19 ± 1.44	20.6	86.2 ± 4.33					
CCCC[C@@H]1[C@H]2CCCN3CCC[C@@H](CN1Cc1ccc(OC)cc1)[C@@H]23 [compound 9, 12N-4-methoxybenzyl matrinic butane]		36.1			1.16 ± 0.25		73 to 74	41.9 ± 1.1
